Test system: Thrombin
Test: Thrombin time measurement (antithrombotic activity) with Thrombitimer2
Assay type: biochemical
Details: per 0.1 mg of asprin; time until fibrinogen clots are formed; FIG. 8
Protocol: As for the 4th step, a thrombin time of the divided groups in the 3rd step are measured and the group showing the highest antithrombotic activity is selected. The thrombin time is, but not limited to, a time until fibrinogen clots are formed. For example, with Thrombitimer2 (Behnk Elektronik, Germany), after adding Thrombin (T46481KU-59NIH unit/mg) and fibrinogen, the time until fibrinogen clots are formed is counted.
The activity was measured by counting a thrombin time according to the method described in Choi et al., Kor. J. Pharmacogn. 26, 154-158, 1995 and Son et al., Kor. J. Pharmacogn. 34 (1):52-61, 2004.
Specifically, the thrombin time was measured with Thrombitimer2 (Behnk Elektronik, Germany) wherein a fixed concentration of specimen was dissolved in 10 ? of dimethylsulfoxide (DMSO), the solution was added to a tube with 50 ? of borate buffer (pH7.8), Thrombin 1 unit/50 ? (T46481KU-59NIH unit/mg solid, Sigma Co., USA) was mixed with the solution, the mixture was warmed at 37° C. for 5 minutes, 200 ? of fibrinogen (0.33%, Sigma Co., USA) was added to it, and the time until coaggulation occurs was counted. […]
Antithrombotic activity was measured by counting a thrombin time and the result is an average of at least 3 experiments.

SMILES: CC(=O)Oc1ccccc1C(=O)O [asprin]
- thrombin time: 15 s

Source: patent US20100015243A1, “METHOD FOR PREPARING MATERIALS HAVING ANTITHROMBOTIC ACTIVITY FROM MUSKRAT MUSK AND MATERIALS OBTAINED FROM THE METHOD” (priority 2006, published 2010)
